# From patent US8680159B2, “Bradykinin 1 receptor modulating compounds” (Gruenenthal GmbH, priority 2010, dated 2014)
# Target: T1, B1R receptor of the rat (CHO K1 cells stably transfected with the B1R gene of the rat) (Rattus norvegicus, UniProt P97583)
# T1 construct: expressed in transfected cells; host or cells: CHO K1 cells (Chinese hamster ovary), stably transfected
# T1 sequence (P97583 1-337): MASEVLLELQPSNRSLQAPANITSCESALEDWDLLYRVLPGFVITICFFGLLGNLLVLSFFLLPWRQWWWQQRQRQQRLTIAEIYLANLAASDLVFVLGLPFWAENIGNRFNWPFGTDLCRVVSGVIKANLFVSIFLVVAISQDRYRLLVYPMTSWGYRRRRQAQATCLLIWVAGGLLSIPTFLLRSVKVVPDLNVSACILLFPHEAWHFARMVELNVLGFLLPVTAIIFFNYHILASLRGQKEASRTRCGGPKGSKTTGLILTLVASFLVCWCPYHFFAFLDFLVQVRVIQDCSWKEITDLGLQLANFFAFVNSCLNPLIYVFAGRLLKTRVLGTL
# Assay: Functional study on the bradykinin receptor 1 (B1R), Ca2+ fluorescence (Fluo-4) FLIPR/Novostar assay, rB1R cells
# Assay type: cell-based
# Conditions: CHO-K1, 10 μM, library compounds CC_H, read-out: % Inhibition (r-B1R) at 10 μM
# In short: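 Ca2+ influx (Fluo-4, peak fluorescence, λex 488/λem 540 nm) was measured in CHO K1 lines expressing rat or human B1R. After a 10 μM test-compound pre-addition scoring % activation, cells received EC80 agonist: Des-Arg9-bradykinin for rat, Lys-Des-Arg9-bradykinin for human. Antagonism was expressed as % of maximum inhibition, with IC50 from varied concentrations.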
row,SMILES,inhibition at 10 µM
1,"CN(C(=O)c1ccc2c(c1)C(NC(=O)c1cccnc1C(F)(F)F)CC2)C1CCN(c2ccnc(S(C)(=O)=O)n2)CC1 (centres unmarked) [CC_H-600, N-[6-[Methyl-[1-(2-methylsulfonyl-pyrimidin-4-yl)-piperidin-4-yl]-carbamoyl]-2,3-dihydro-1H-inden-1-yl]-2-(trifluoromethyl)-pyridine-3-carboxylic acid amide]",91%
2,"CN(C)C(=O)c1cc(N2CCC(N(C)C(=O)c3ccc4c(c3)C(NC(=O)c3cccnc3C(F)(F)F)CC4)CC2)ccn1 (centres unmarked) [CC_H-601, N-[6-[[1-[2-(Dimethyl-carbamoyl)-pyridin-4-yl]-piperidin-4-yl]-methyl-carbamoyl]-2,3-dihydro-1H-inden-1-yl]-2-(trifluoromethyl)-pyridine-3-carboxylic acid amide]",74%
3,"CN(C(=O)c1ccc2c(c1)C(NC(=O)c1cccnc1C(F)(F)F)CC2)C1CCN(c2ccnc(N3CCCC3)n2)CC1 (centres unmarked) [CC_H-603, N-[6-[Methyl-[1-(2-pyrrolidin-1-yl-pyrimidin-4-yl)-piperidin-4-yl]-carbamoyl]-2,3-dihydro-1H-inden-1-yl]-2-(trifluoromethyl)-pyridine-3-carboxylic acid amide]",102%
4,"Cc1cc(N2CCC(N(C)C(=O)c3ccc4c(c3)C(NC(=O)c3cccnc3C(F)(F)F)CC4)CC2)nc(N(C)C)n1 (centres unmarked) [CC_H-604, N-[6-[[1-(2-Dimethylamino-6-methyl-pyrimidin-4-yl)-piperidin-4-yl]-methyl-carbamoyl]-2,3-dihydro-1H-inden-1-yl]-2-(trifluoromethyl)-pyridine-3-carboxylic acid amide]",102%

# Same assay, conditions: CHO-K1, 10 μM, read-out: % Inhibition (r-B1R) at 10 μM
row,SMILES,inhibition at 10 µM
1,"CN(C(=O)c1ccc2c(c1)C(NC(=O)c1cc(Cl)ccc1Cl)CC2)C1CCN(c2ccc3cnccc3c2)CC1 (centres unmarked) [CC_H-359, 3-[(2,5-Dichloro-benzoyl)amino]-N-(1-isoquinolin-6-yl-piperidin-4-yl)-N-methyl-2,3-dihydro-1H-indene-5-carboxylic acid amide]",110%
2,"CN(C(=O)c1ccc2c(c1)C(NC(=O)C1CCCCC1)CC2)C1CCN(c2ccc3cnccc3c2)CC1 (centres unmarked) [CC_H-360, 3-(Cyclohexanecarbonylamino)-N-(1-isoquinolin-6-yl-piperidin-4-yl)-N-methyl-2,3-dihydro-1H-indene-5-carboxylic acid amide]",109%
3,"CN(C(=O)c1ccc2c(c1)C(NC(=O)C1CC1)CC2)C1CCN(c2ccc3cnccc3c2)CC1 (centres unmarked) [CC_H-361, 3-(Cyclopropanecarbonylamino)-N-(1-isoquinolin-6-yl-piperidin-4-yl)-N-methyl-2,3-dihydro-1H-indene-5-carboxylic acid amide]",110%
4,"CN(C(=O)c1ccc2c(c1)C(NC(=O)CC(C)(C)C)CC2)C1CCN(c2ccc3cnccc3c2)CC1 (centres unmarked) [CC_H-362, 3-(3,3-Dimethyl-butanoylamino)-N-(1-isoquinolin-6-yl-piperidin-4-yl)-N-methyl-2,3-dihydro-1H-indene-5-carboxylic acid amide]",110%
5,"COCC(=O)NC1CCc2ccc(C(=O)N(C)C3CCN(c4ccc5cnccc5c4)CC3)cc21 (centres unmarked) [CC_H-363, N-(1-Isoquinolin-6-yl-piperidin-4-yl)-3-[(2-methoxy-acetyl)amino]-N-methyl-2,3-dihydro-1H-indene-5-carboxylic acid amide]",89%
6,"CN(C(=O)c1ccc2c(c1)C(NC(=O)c1cccc(C(F)(F)F)c1Cl)CC2)C1CCN(c2ccc3cnccc3c2)CC1 (centres unmarked) [CC_H-364, 3-[[2-Chloro-3-(trifluoromethyl)-benzoyl]amino]-N-(1-isoquinolin-6-yl-piperidin-4-yl)-N-methyl-2,3-dihydro-1H-indene-5-carboxylic acid amide]",111%
7,"CN(C(=O)c1ccc2c(c1)C(NC(=O)Nc1ccccc1Cl)CC2)C1CCN(c2ccc3cnccc3c2)CC1 (centres unmarked) [CC_H-365, 3-[[(2-Chlorophenyl)-carbamoyl]amino]-N-(1-isoquinolin-6-yl-piperidin-4-yl)-N-methyl-2,3-dihydro-1H-indene-5-carboxylic acid amide]",64%
8,"CN(C(=O)c1ccc2c(c1)C(NC(=O)Nc1c(Cl)cccc1Cl)CC2)C1CCN(c2ccc3cnccc3c2)CC1 (centres unmarked) [CC_H-366, 3-[[(2,6-Dichloro-phenyl)-carbamoyl]amino]-N-(1-isoquinolin-6-yl-piperidin-4-yl)-N-methyl-2,3-dihydro-1H-indene-5-carboxylic acid amide]",92%
9,"CN(C(=O)NC1CCc2ccc(C(=O)N(C)C3CCN(c4ccc5cnccc5c4)CC3)cc21)c1ccccc1Cl (centres unmarked) [CC_H-375, 3-[[(2-Chlorophenyl)-methyl-carbamoyl]amino]-N-(1-isoquinolin-6-yl-piperidin-4-yl)-N-methyl-2,3-dihydro-1H-indene-5-carboxylic acid amide]",91%
10,"CN(C(=O)NC1CCc2ccc(C(=O)N(C)C3CCN(c4ccc5cnccc5c4)CC3)cc21)c1ccc(Cl)cc1Cl (centres unmarked) [CC_H-376, 3-[[(2,4-Dichlorophenyl)-methyl-carbamoyl]amino]-N-(1-isoquinolin-6-yl-piperidin-4-yl)-N-methyl-2,3-dihydro-1H-indene-5-carboxylic acid amide]",77%
11,"CCCS(=O)(=O)NC1CCc2ccc(C(=O)N(C)C3CCN(c4ccc5cnccc5c4)CC3)cc21 (centres unmarked) [CC_H-378, N-(1-Isoquinolin-6-yl-piperidin-4-yl)-N-methyl-3-[(propylsulfonyl)amino]-2,3-dihydro-1H-indene-5-carboxylic acid amide]",101%
12,"CC(C)CC(=O)NC1CCc2ccc(C(=O)N(C)C3CCN(c4ccc5cnccc5c4)CC3)cc21 (centres unmarked) [CC_H-379, N-(1-Isoquinolin-6-yl-piperidin-4-yl)-N-methyl-3-(3-methyl-butanoylamino)-2,3-dihydro-1H-indene-5-carboxylic acid amide]",110%
13,"CCCC(=O)NC1CCc2ccc(C(=O)N(C)C3CCN(c4ccc5cnccc5c4)CC3)cc21 (centres unmarked) [CC_H-380, 3-(Butanoylamino)-N-(1-isoquinolin-6-yl-piperidin-4-yl)-N-methyl-2,3-dihydro-1H-indene-5-carboxylic acid amide]",103%
14,"CN(C(=O)c1ccc2c(c1)C(NC(=O)CCC1CCCC1)CC2)C1CCN(c2ccc3cnccc3c2)CC1 (centres unmarked) [CC_H-381, 3-(3-Cyclopentyl-propanoylamino)-N-(1-isoquinolin-6-yl-piperidin-4-yl)-N-methyl-2,3-dihydro-1H-indene-5-carboxylic acid amide]",109%
15,"CN(C(=O)c1ccc2c(c1)C(NS(=O)(=O)Cc1cccc(C(F)(F)F)c1)CC2)C1CCN(c2ccc3cnccc3c2)CC1 (centres unmarked) [CC_H-383, N-(1-Isoquinolin-6-yl-piperidin-4-yl)-N-methyl-3-[[[3-(trifluoromethyl)phenyl]-methylsulfonyl]amino]-2,3-dihydro-1H-indene-5-carboxylic acid amide]",50%
16,"CN(C(=O)c1ccc2c(c1)C(NS(=O)(=O)Cc1ccccc1F)CC2)C1CCN(c2ccc3cnccc3c2)CC1 (centres unmarked) [CC_H-384, 3-[[(2-Fluorophenyl)-methylsulfonyl]amino]-N-(1-isoquinolin-6-yl-piperidin-4-yl)-N-methyl-2,3-dihydro-1H-indene-5-carboxylic acid amide]",109%
